# Measured values taken from patent US20230339882A1, “SHP2 INHIBITOR AND COMPOSITION AND APPLICATION THEREOF” (Betta Pharmaceuticals Co., Ltd., priority 2020, published 2023).
# Assays:
# [1] = tested on: lung cancer cells NCI-H358; assay: Cell proliferation assay, CELL TITER-GLO (CTG) luminescence, NCI-H358; assay type: cell-based; conditions: cultured for 96 hrs
# Method: (§1) Example B: Cell Proliferation Assay
# (§2) The effects of the compounds of the invention on the proliferation of leukemia cells MV-4-11 and lung cancer cells NCI-H358 were evaluated using in vitro cell assays. The detection method used in the experiment is the CELL TITER-GLO (CTG) luminescence method, which can detect the number of viable cells by quantifying ATP. Because ATP participates in a variety of enzymatic reactions in vivo, it is an indicator of the metabolism of living cells, and its content directly reflects the number and state of cells. During the experiment, CellTiter-Glo™ reagent was added to the cell culture medium to measure the luminescence value. The value is proportional to the amount of ATP, and ATP is positively related to the number of living cells, so the cell viability can be examined by detecting the ATP content.
# (§3) experiment procedure: • (1) Cell plating: • Take a bottle of MV-4-11 cells in logarithmic growth phase, resuspend the cells by centrifugation and count them. After adjusting the cell density, they were seeded into a 96-well plate (Corning #3917). After culturing in a 5% CO2 incubator for 24 hrs, the compound of the present invention was added for treatment; • Take a bottle of NCI-H358 cells in logarithmic growth phase, digest and resuspend the cells, count them, adjust the cell density, and inoculate them into a 96-well transparent ultra-low adsorption cell culture plate (Corning #3474), inoculate 2000 cells per well. The plate was placed in an incubator at 37° C. and 5% CO2 for 24 hrs, and then the compound of the present invention was added for treatment; • (2) Cell compound treatment: • An appropriate amount of the compound of the present invention was prepared for cell treatment. The final concentration of the compound from high to low was 1000 nM, 333.3 nM, 111.1 nM, 37.04 nM, 12.35 nM, 4.115 nM, 1.372 nM, 0.4572 nM, 0.1524 nM, and 0 nM. The plate was placed in a 37° C., 5% CO2 incubator for 120 hrs. Only adding medium without cell wells was set as the blank group; the group with compound concentration of 0 nM was the zero-adjusting group. • (3) CTG detection: • After NCI-H358 cells were cultured for 96 hrs, 50 µL of CellTiter-Glo® Luminescent Cell Viability Assay solution was added to each well, shaken gently for 2 mins, and incubated at room temperature for 10 mins. The cell reaction system was transferred to a white-bottomed 96-well plate. Read the detection value of each well on a multi-function microplate reader. • After MV-4-11 cells were cultured for 120 hrs, 50 µL of CellTiter-Glo® Luminescent Cell Viability Assay solution was added to each well, gently shaken for 2 mins, and incubated at room temperature for 10 mins. Check the value. • (4) Data analysis: • Calculate the inhibition rate from the luminescence value readings, • [formula]
# (§4) The log(inhibitor) vs. response-Variable slope of GraphPad Prism was fitted to dose-response curves and IC50s of compounds that inhibited cell proliferation were calculated.
# [2] = In vitro metabolic stability in liver microsomes, rat; assay type: in vitro ADME; conditions: for microsomal CLint at 2 µM: pH 7.3, read-out: CLint (µL/min/mg protein) rat
# Method: (§5) Example D: In Vitro Metabolic Stability of Human and Rat Liver Microsomes Test Buffer Preparation
# (§6) Dissolve 1900 mg of MgCl2 in 400 mL of ultrapure water.
# (§7) Dissolve 17.42 g K2HPO4 and 13.65 g KH2PO4 into 1000 mL of ultrapure water, respectively. Mix a certain proportion of K2HPO4 and KH2PO4 to adjust the pH to 7.30 ± 0.10.
# (§8) Prepare a solution of 10 ng/mL labetalol and 10 ng/mL glyburide in acetonitrile and store at 4° C.
# (§9) Prepare 10 mM verapamil (positive control) and test article stock solutions in DMSO. Then, with MeOH/ACN/H2O solution (1:1:2 by volume), diluted to 50 µM and 200 µM working solutions, respectively.
# (§10) experiment procedure: • 1) Add 40 µL MgCl2 and 306 µL PBS to 96 wells (set blank control group, positive control group, test compound sample group, and negative control group at the same time) • 2) Add 4 µL of compound working solution to each well (4 µL of PBS buffer for blank group) (Note: the final concentration of DMSO volume in the system is ≤ 0.5%) • 3) Add 10 µL of liver microsomes (concentration: 20 mg/mL) to each well, mix well, and pre-incubate at 37° C. for 10 minutes. • 4) Add 40 µL of 10 mM NADPH working solution to each well to start the reaction (add equal volume of PBS buffer for blank control group and negative control group respectively), the total reaction volume is 400 µL. • 5) Take out 50 µL samples from the above reaction solution at 0, 5, 15, and 45 minutes, and add 400 µL of reaction stop solution to stop the reaction • 6) Shake the sample after the termination of the reaction on a shaker for 5 minutes. • 7) Centrifuge the sample at 3200 rcf for 10 minutes. After the centrifugation is complete, transfer 50 µL of the supernatant to 200 µL of H2O for dilution for LC-MS/MS analysis.
# (§11) Calculations of t½ and CLint are performed using the first-order kinetic equations: […]
# (§12) where k represents the elimination constant, calculated from a log-linear plot of percentage remaining versus time. t½ represents half-life. Cprotein is the concentration of liver microsomes.
# [3] = tested on: leukemia cells MV-4-11; assay: Cell proliferation assay, CELL TITER-GLO (CTG) luminescence, MV-4-11; assay type: cell-based
# Method: as §1, §2, §3, §4
# [4] = In vitro metabolic stability in liver microsomes, human; assay type: in vitro ADME; conditions: for microsomal CLint at 2 µM: pH 7.3, read-out: CLint (µL/min/mg protein) human
# Method: as §5, §6, §7, §8, §9, §10, §11, §12
# [5] = In vitro metabolic stability in liver microsomes, mouse; assay type: in vitro ADME; conditions: for microsomal CLint at 2 µM: pH 7.3, read-out: CLint (µL/min/mg protein) mouse
# [6] = In vitro metabolic stability in liver microsomes, monkey; assay type: in vitro ADME; conditions: for microsomal CLint at 2 µM: pH 7.3, read-out: CLint (µL/min/mg protein) monkey
# [7] = In vitro metabolic stability in liver microsomes, dog; assay type: in vitro ADME; conditions: for microsomal CLint at 2 µM: dog, microsomes, pH 7.3
# [8] = target: SHP2 (Homo sapiens (Human), UniProt Q06124); assay: SHP2 allosteric inhibitory enzyme activity assay (DiFMUP fluorescence); assay type: biochemical; conditions: read-out: SHP2 enzymatic activity IC50
# Text: Example A: SHP2 Allosteric Inhibitory Enzyme Activity Assay
# SHP2 is allosterically activated by binding of a bis-tyrosyl-phosphorylated peptide to its Src homology 2 (SH2) domain. This later activation step results in the release of the autoinhibitory interface of SHP2, which in turn activates the SHP2 protein tyrosine phosphatase (PTP) and is available for substrate recognition and reaction catalysis. The catalytic activity of SHP2 was monitored using the surrogate DiFMUP in a rapid fluorescence assay format.
# experiment procedure: • (1) Compound preparation: • The compounds of the present invention (10 mM stock solution) were diluted to appropriate times with 100% DMSO, and the final test concentrations of the compounds of the present invention were 10 µM, 3.3333 µM, 1.1111 µM, 0.3704 µM, 0.1235 µM, 0.0412 µM, 0.0137 µM, 0.0046 µM, 0.0015 µM, 0.00 µM; • (2) Prepare the enzyme reaction working solution: • Perform SHP2 enzymatic assays in 96-well black polystyrene plates (flat bottom, low flange, non-binding surface) (Perki Elmer, Cat#6005270) at room temperature using a final reaction volume of 50 µL and the following assay buffer conditions: 60 mM HEPES, 75 mM NaCl, 75 mM KCl, 0.05% BRIJ-35, 1 mM EDTA, 5 mM DTT. • (3) Enzyme-catalyzed reaction and data monitoring: • Add the compound of the present invention to the corresponding 96-well plate, and set the blank test well without compound and enzyme only with buffer. Thaw SHP2 Activating Peptide (IRS1_pY1172(dPEG8)pY1222) on ice, add 25 µM to each well, then add 0.2 ng of SHP2 protein sample to the corresponding well plate and incubate at room temperature for 1 hour. The surrogate substrate DiFMUP (Invitrogen, Cat #D6567) was added to the reaction and allowed to react for 1 hour at room temperature. Fluorescence signals were monitored using a microplate reader (Envision, Perki Elmer) using excitation and emission wavelengths of 340 nm and […], respectively. • (4) Data analysis: • Calculation Formula: • [formula]
# Among them: Conversion_sample is the conversion rate reading of the sample; Conversion_min is the average value of blank control wells, representing the conversion rate readings of wells without enzymatic activity; Conversion_max is the mean ratio of positive control wells, representing the conversion rate readings of wells without compound inhibition. The log(inhibitor) vs. response-Variable slope of the analysis software GraphPad Prism was used to fit the dose-response curve, and the IC50 value of the compound for the enzymatic activity was calculated.
# [9] = Homo sapiens, NCI-H358, ultra-low adsorption plate
# [10] = Homo sapiens, MV4-11, cultured for 120 hrs
Compound,"IC50 [1, 9] [nM]",microsomal CLint at 2 µM [2] [µL/min/mg],"IC50 [3, 10] [nM]",microsomal CLint at 2 µM [4] [µL/min/mg],microsomal CLint at 2 µM [5] [µL/min/mg],microsomal CLint at 2 µM [6] [µL/min/mg],microsomal CLint at 2 µM [7] [µL/min/mg],IC50 ([1]; ultra-low adsorption plate) [nM],IC50 ([3]; cultured for 120 hrs) [nM],IC50 [8] [nM],other results
"N#Cc1ccc(OCC#Cc2cnc(N3CCC4(CC3)Cc3ccccc3[C@H]4N)c(CO)n2)cc1 [Compound A12, (S)-4-((3-(5-(1-amino-1,3-dihydrospiro[indene-2,4′-piperidin]-1′-yl)-6-(hydroxymethyl)pyrazin-2-yl)prop-2-yn-1-yl)oxy)benzonitrile]",7.4,5.5,3.8,0.2,8.3,7.3,6.2,,,,
"N[C@@H]1c2ccccc2CC12CCN(c1ncc(C#CCOc3ccc(C(F)(F)F)cc3)nc1CO)CC2 [Compound A14, (S)-(3-(1-amino-1,3-dihydrospiro[indene-2,4′-piperidin]-1′-yl)-6-(3-(4-(trifluoromethyl)phenoxy)prop-1-yn-1-yl)pyrazin-2-yl)methanol]",,1.8,,1.4,6.4,3.1,7.8,,,,
"Nc1ncc(OCC#Cc2cnc(N3CCC4(CC3)Cc3ccccc3[C@H]4N)c(CO)n2)cn1 [Compound A19, (S)-(3-(1-amino-1,3-dihydrospiro[indene-2,4′-piperidin]-1′-yl)-6-(3-( (2-Aminopyrimidine-5-yl)oxy)prop-1-yn-1-yl)pyrazin-2-yl)methanol]",,31.6,,8.2,21.4,21.2,18.3,,,,
"N[C@@H]1c2ccccc2CC12CCN(c1ncc(C#CCOc3ccc4ccc(=O)[nH]c4c3)nc1CO)CC2 [Compound A24, (S)-7-((3-(5-(1-amino-1,3-dihydrospiro[indene-2,4′-piperidin]-1′-yl)-6-(hydroxymethyl)pyrazin-2-yl)prop-2-yn-1-yl)oxy)quinolin-2(1H)-one]",1.5,11,1.3,1.6,8.3,9.9,8.8,,,,
"NC(=O)c1cccc(NCC#Cc2cnc(N3CCC4(CC3)Cc3ccccc3[C@H]4N)c(CO)n2)c1 [Compound A81, (S)-3-((3-(5-(1-amino-1,3-dihydrospiro[indene-2,4′-piperidin]-1′-yl)-6-(hydroxymethyl)pyrazin-2-yl)prop-2-yn-1-yl)amino)benzamide]",6.3,18.4,1.8,14.2,11.5,4,13.5,,,,
"(S)-4-((3-(5-(1-amino-1,3-dihydro spiro[indene-2,4′-piperidin]-1′-yl)-6-(hydroxymethyl)pyrazin-2-yl)pr op-2-yn-1-yl)oxy)-N-picoline amide [Compound A40]",,,,,,,,,,,CLint (µL/min/mg protein) rat [2]: 11.7 µL/min/mg protein; CLint (µL/min/mg protein) human [4]: 11.0 µL/min/mg protein; CLint (µL/min/mg protein) mouse [5]: 11.0 µL/min/mg protein; CLint (µL/min/mg protein) monkey [6]: 15.5 µL/min/mg protein; CLint (µL/min/mg protein) dog ([7]; dog liver microsomes): 7.8 µL/min/mg protein
"(S)-(3-(1-amino-1,3-dihydrospiro[ indene-2,4′-piperidin]-1′-yl)-6-(3-( 3,4-dimethoxyphenoxy)prop-1-yn-1-y 1)pyrazin-2-yl)methanol [Compound A11]",,,,,,,,6.3,2.6,1.5,
"(S)-(3-(1-amino-1,3-dihydrospiro[ indene-2,4′-piperidin]-1′-yl)-6-(3-( 4-morpholinoloxy)prop-1-yn-1-yl )pyrazin-2-yl)methanol [Compound A20]",,,,,,,,14,12,3.8,
"(S)-(3-(1-amino-1,3-dihydrospiro[ indene-2,4′-piperidin]-1′-yl)-6-(3-( benzo[d][1,3]dioxyol-5-oxy)prop-1-yn-1-yl)pyrazin-2-yl)methanol [Compound A28]",,,,,,,,7,6.1,1.5,
